# Measurements as given in patent publication US4281136A, “2-Alkyl-3-haloisothiazolium salts and their derivatives” (Givaudan Corporation, priority 1978, dated 1981).
# System: Ps. aeruginosa
# Assay: preservative for cutting oil emulsions
# Type: cell-based
# Conditions: Pseudomonas aeruginosa, 168 h; cutting oil emulsion, incubation 1 week, 28°; read-out: Minimum Inhibitory Concentration
# Description: Various aliquots of a 6% solution of the chemical in ethanol were added to cutting oil emulsions prepared by diluting Kutwell 30 cutting oil concentrate 1 to 30 with water. These samples were inoculated with a culture of Ps. aeruginosa and incubated at 28° on a rotary shaker. At weekly intervals the samples were examined for microorganisms and then reinoculated and incubated.
row,MIC [µg/mL],SMILES
1,16,CCn1sc(Cl)c(Cl)c1=S [No. 2 (Table VIII)]
2,125,C[n+]1scc([N+](=O)[O-])c1Cl [No. 28 (Table I)]
3,125,"CCOC(=O)c1s[n+](C)c(Cl)c1Cl [No. 24 (Table I), 3,4-Dichloro-2-methyl-5-ethoxycarbonylisothiazolium fluorosulfonate]"
4,125,"CCOC(=O)C1=C(Cl)C(=C(C#N)C#N)N(C)S1 [drawing 12 CH3, Cl, COOEt, 4-Chloro-3-dicyanomethylene-5-ethoxycarbonyl-2-methyl-4-isothiazoline]"
5,4,"CC[n+]1sc(Cl)c(Cl)c1Cl.F[B-](F)(F)F [No. 7 (Table I), 2-Ethyl-3,4,5-trichloroisothiazolium tetrafluoroborate]"
6,16,Cn1sc(C#N)c(Cl)c1=S [No. 6 (Table VIII)]
7,125,"CCN1SC=CC1=C(C#N)C#N [drawing 12 CH2CH3, H, H]"

row,SMILES,MIC [µg/mL]
1,"CCC[n+]1sc(Cl)c(Cl)c1Cl.O=S(=O)([O-])C(F)(F)F [No. 10 (Table I), 2-Propyl-3,4,5-trichloroisothiazolium trifluoromethane sulfonate]",< 32

# Same assay, conditions: Pseudomonas aeruginosa, 336 h; cutting oil emulsion, incubation 2 weeks, 28°; read-out: Minimum Inhibitory Concentration
row,MIC [µg/mL],SMILES
1,32,CCn1sc(Cl)c(Cl)c1=S [No. 2 (Table VIII)]
2,500,C[n+]1scc([N+](=O)[O-])c1Cl [No. 28 (Table I)]
3,250,"CCOC(=O)c1s[n+](C)c(Cl)c1Cl [No. 24 (Table I), 3,4-Dichloro-2-methyl-5-ethoxycarbonylisothiazolium fluorosulfonate]"
4,125,"CCOC(=O)C1=C(Cl)C(=C(C#N)C#N)N(C)S1 [drawing 12 CH3, Cl, COOEt, 4-Chloro-3-dicyanomethylene-5-ethoxycarbonyl-2-methyl-4-isothiazoline]"
5,8,"CC[n+]1sc(Cl)c(Cl)c1Cl.F[B-](F)(F)F [No. 7 (Table I), 2-Ethyl-3,4,5-trichloroisothiazolium tetrafluoroborate]"
6,125,Cn1sc(C#N)c(Cl)c1=S [No. 6 (Table VIII)]
7,250,"CCN1SC=CC1=C(C#N)C#N [drawing 12 CH2CH3, H, H]"

row,SMILES,MIC [µg/mL]
1,"CCC[n+]1sc(Cl)c(Cl)c1Cl.O=S(=O)([O-])C(F)(F)F [No. 10 (Table I), 2-Propyl-3,4,5-trichloroisothiazolium trifluoromethane sulfonate]",< 32

# Same assay, conditions: Pseudomonas aeruginosa, 504 h; cutting oil emulsion, incubation 3 weeks, 28°; read-out: Minimum Inhibitory Concentration
row,MIC [µg/mL],SMILES
1,62,CCn1sc(Cl)c(Cl)c1=S [No. 2 (Table VIII)]
2,500,C[n+]1scc([N+](=O)[O-])c1Cl [No. 28 (Table I)]
3,250,"CCOC(=O)c1s[n+](C)c(Cl)c1Cl [No. 24 (Table I), 3,4-Dichloro-2-methyl-5-ethoxycarbonylisothiazolium fluorosulfonate]"
4,125,"CCOC(=O)C1=C(Cl)C(=C(C#N)C#N)N(C)S1 [drawing 12 CH3, Cl, COOEt, 4-Chloro-3-dicyanomethylene-5-ethoxycarbonyl-2-methyl-4-isothiazoline]"
5,8,"CC[n+]1sc(Cl)c(Cl)c1Cl.F[B-](F)(F)F [No. 7 (Table I), 2-Ethyl-3,4,5-trichloroisothiazolium tetrafluoroborate]"
6,250,Cn1sc(C#N)c(Cl)c1=S [No. 6 (Table VIII)]
7,250,"CCN1SC=CC1=C(C#N)C#N [drawing 12 CH2CH3, H, H]"

row,SMILES,MIC [µg/mL]
1,"CCC[n+]1sc(Cl)c(Cl)c1Cl.O=S(=O)([O-])C(F)(F)F [No. 10 (Table I), 2-Propyl-3,4,5-trichloroisothiazolium trifluoromethane sulfonate]",< 32

# Same assay, conditions: Pseudomonas aeruginosa, 672 h; cutting oil emulsion, incubation 4 weeks, 28°; read-out: Minimum Inhibitory Concentration
row,MIC [µg/mL],SMILES
1,62,CCn1sc(Cl)c(Cl)c1=S [No. 2 (Table VIII)]
2,500,C[n+]1scc([N+](=O)[O-])c1Cl [No. 28 (Table I)]
3,250,"CCOC(=O)c1s[n+](C)c(Cl)c1Cl [No. 24 (Table I), 3,4-Dichloro-2-methyl-5-ethoxycarbonylisothiazolium fluorosulfonate]"
4,125,"CCOC(=O)C1=C(Cl)C(=C(C#N)C#N)N(C)S1 [drawing 12 CH3, Cl, COOEt, 4-Chloro-3-dicyanomethylene-5-ethoxycarbonyl-2-methyl-4-isothiazoline]"
5,32,"CC[n+]1sc(Cl)c(Cl)c1Cl.F[B-](F)(F)F [No. 7 (Table I), 2-Ethyl-3,4,5-trichloroisothiazolium tetrafluoroborate]"
6,250,Cn1sc(C#N)c(Cl)c1=S [No. 6 (Table VIII)]
7,500,"CCN1SC=CC1=C(C#N)C#N [drawing 12 CH2CH3, H, H]"

row,SMILES,MIC [µg/mL]
1,"CCC[n+]1sc(Cl)c(Cl)c1Cl.O=S(=O)([O-])C(F)(F)F [No. 10 (Table I), 2-Propyl-3,4,5-trichloroisothiazolium trifluoromethane sulfonate]",< 32

# Same assay, conditions: cutting oil emulsion, incubation 1 week, 28°; listed as CH3, Cl, Cl, O3SF
row,SMILES,Minimum Inhibitory Concentration [µg/mL]
1,"C[n+]1sc(Cl)c(Cl)c1Cl [No. 1 (Table I), 2-Methyl-3,4,5-trichloroisothiazolium fluorosulfonate]",< 16

# Same assay, conditions: cutting oil emulsion, incubation 1 week, 28°; listed as CH3, Cl, H, O3SF
row,SMILES,Minimum Inhibitory Concentration [µg/mL]
1,"C[n+]1sccc1Cl [No. 13 (Table I), 3-Chloro-2-methylisothiazolium fluorosulfonate]",32

# Same assay, conditions: cutting oil emulsion, incubation 1 week, 28°; listed as CH3, Cl, H, O3SOMe
row,SMILES,Minimum Inhibitory Concentration [µg/mL]
1,C[n+]1sccc1Cl [No. 14 (Table I)],64

# Same assay, conditions: cutting oil emulsion, incubation 1 week, 28°; listed as CH3, Cl, H, PF6
row,SMILES,Minimum Inhibitory Concentration [µg/mL]
1,C[n+]1sccc1Cl [No. 17 (Table I)],32

# Same assay, conditions: cutting oil emulsion, incubation 1 week, 28°; listed as CH3, Cl, H, SbCl6
row,SMILES,Minimum Inhibitory Concentration [µg/mL]
1,C[n+]1sccc1Cl [No. 16 (Table I)],8

# Same assay, conditions: cutting oil emulsion, incubation 2 weeks, 28°; listed as CH3, Cl, Cl, O3SF
row,SMILES,Minimum Inhibitory Concentration [µg/mL]
1,"C[n+]1sc(Cl)c(Cl)c1Cl [No. 1 (Table I), 2-Methyl-3,4,5-trichloroisothiazolium fluorosulfonate]",< 16

# Same assay, conditions: cutting oil emulsion, incubation 2 weeks, 28°; listed as CH3, Cl, H, O3SF
row,SMILES,Minimum Inhibitory Concentration [µg/mL]
1,"C[n+]1sccc1Cl [No. 13 (Table I), 3-Chloro-2-methylisothiazolium fluorosulfonate]",32

# Same assay, conditions: cutting oil emulsion, incubation 2 weeks, 28°; listed as CH3, Cl, H, O3SOMe
row,SMILES,Minimum Inhibitory Concentration [µg/mL]
1,C[n+]1sccc1Cl [No. 14 (Table I)],64

# Same assay, conditions: cutting oil emulsion, incubation 2 weeks, 28°; listed as CH3, Cl, H, PF6
row,SMILES,Minimum Inhibitory Concentration [µg/mL]
1,C[n+]1sccc1Cl [No. 17 (Table I)],32

# Same assay, conditions: cutting oil emulsion, incubation 2 weeks, 28°; listed as CH3, Cl, H, SbCl6
row,SMILES,Minimum Inhibitory Concentration [µg/mL]
1,C[n+]1sccc1Cl [No. 16 (Table I)],16

# Same assay, conditions: cutting oil emulsion, incubation 3 weeks, 28°; listed as CH3, Cl, Cl, H, O3SOMe
row,SMILES,Minimum Inhibitory Concentration [µg/mL]
1,C[n+]1scc(Cl)c1Cl [No. 23 (Table I)],32

# Same assay, conditions: cutting oil emulsion, incubation 3 weeks, 28°; listed as CH3, Cl, Cl, O3SF
row,SMILES,Minimum Inhibitory Concentration [µg/mL]
1,"C[n+]1sc(Cl)c(Cl)c1Cl [No. 1 (Table I), 2-Methyl-3,4,5-trichloroisothiazolium fluorosulfonate]",< 16

# Same assay, conditions: cutting oil emulsion, incubation 3 weeks, 28°; listed as CH3, Cl, H, O3SF
row,SMILES,Minimum Inhibitory Concentration [µg/mL]
1,"C[n+]1sccc1Cl [No. 13 (Table I), 3-Chloro-2-methylisothiazolium fluorosulfonate]",32

# Same assay, conditions: cutting oil emulsion, incubation 3 weeks, 28°; listed as CH3, Cl, H, O3SOMe
row,SMILES,Minimum Inhibitory Concentration [µg/mL]
1,C[n+]1sccc1Cl [No. 14 (Table I)],64

# Same assay, conditions: cutting oil emulsion, incubation 3 weeks, 28°; listed as CH3, Cl, H, PF6
row,SMILES,Minimum Inhibitory Concentration [µg/mL]
1,C[n+]1sccc1Cl [No. 17 (Table I)],32

# Same assay, conditions: cutting oil emulsion, incubation 3 weeks, 28°; listed as CH3, Cl, H, SbCl6
row,SMILES,Minimum Inhibitory Concentration [µg/mL]
1,C[n+]1sccc1Cl [No. 16 (Table I)],16

# Same assay, conditions: cutting oil emulsion, incubation 4 weeks, 28°; listed as CH3, Cl, Cl, H, O3SOMe
row,SMILES,Minimum Inhibitory Concentration [µg/mL]
1,C[n+]1scc(Cl)c1Cl [No. 23 (Table I)],32

# Same assay, conditions: cutting oil emulsion, incubation 4 weeks, 28°; listed as CH3, Cl, Cl, O3SF
row,SMILES,Minimum Inhibitory Concentration [µg/mL]
1,"C[n+]1sc(Cl)c(Cl)c1Cl [No. 1 (Table I), 2-Methyl-3,4,5-trichloroisothiazolium fluorosulfonate]",< 16

# Same assay, conditions: cutting oil emulsion, incubation 4 weeks, 28°; listed as CH3, Cl, H, O3SF
row,SMILES,Minimum Inhibitory Concentration [µg/mL]
1,"C[n+]1sccc1Cl [No. 13 (Table I), 3-Chloro-2-methylisothiazolium fluorosulfonate]",32

# Same assay, conditions: cutting oil emulsion, incubation 4 weeks, 28°; listed as CH3, Cl, H, O3SOMe
row,SMILES,Minimum Inhibitory Concentration [µg/mL]
1,C[n+]1sccc1Cl [No. 14 (Table I)],64

# Same assay, conditions: cutting oil emulsion, incubation 4 weeks, 28°; listed as CH3, Cl, H, PF6
row,SMILES,Minimum Inhibitory Concentration [µg/mL]
1,C[n+]1sccc1Cl [No. 17 (Table I)],32

# Same assay, conditions: cutting oil emulsion, incubation 4 weeks, 28°; listed as CH3, Cl, H, SbCl6
row,SMILES,Minimum Inhibitory Concentration [µg/mL]
1,C[n+]1sccc1Cl [No. 16 (Table I)],16

# System: Aureobasidium pullulans
# Assay: preservative for latex paints
# Type: cell-based
# Conditions: Aureobasidium pullulans, 504 h, read-out: Zone (zone of inhibition), Conc. 0.5% in vinyl acetate paint, three weeks, 27°-28°
# Description: Various quantities of the chemical were incorporated into a white exterior vinyl acetate paint. Whatman #30 filter paper was painted with one coat of paint on each side. One inch squares were cut and placed in Petri dishes on a malt agar.
# The surface of both the agar and the painted squares were inoculated with a spore suspension of Aureobasidium pullulans. The plates were examined for zones of inhibition and surface growth after three weeks incubation in a humidity chamber at 27°-28°.
# Various quantities of 4,5-dichloro-2-methyl-4-isothiazolin-3-thione were incorporated into a white exterior vinyl acetate paint and tested as described in Example IV.
row,SMILES,zone of inhibition at 0.5 % [mm]
1,"C[n+]1sc(Cl)c(Cl)c1Cl [No. 1 (Table I), 2-Methyl-3,4,5-trichloroisothiazolium fluorosulfonate]",> 20

# Same assay, conditions: Aureobasidium pullulans, 504 h; Conc. 0.25% in vinyl acetate paint, three weeks, 27°-28°; read-out: Zone (zone of inhibition)
row,SMILES,zone of inhibition at 0.25 % [mm]
1,"CC[n+]1sc(Cl)c(Cl)c1Cl [Et, Cl, Cl, Cl, O3SCF3]",20

# Same assay, conditions: Aureobasidium pullulans, 504 h; Conc. 0.5% in vinyl acetate paint, three weeks, 27°-28°; read-out: Zone (zone of inhibition)
row,SMILES,zone of inhibition at 0.5 % [mm]
1,"CC[n+]1sc(Cl)c(Cl)c1Cl [Et, Cl, Cl, Cl, O3SCF3]",20

# Same assay, conditions: Conc. 0.25% in vinyl acetate paint, three weeks, 27°-28°; listed as CH3, Cl, Cl, O3SF
row,SMILES,Zone (zone of inhibition) [mm]
1,"C[n+]1sc(Cl)c(Cl)c1Cl [No. 1 (Table I), 2-Methyl-3,4,5-trichloroisothiazolium fluorosulfonate]",0

# Same assay, conditions: Conc. 0.25% in vinyl acetate paint, three weeks, 27°-28°; none, medium or heavy
row,SMILES,Surface (growth on the surface of painted square)
1,"CC[n+]1sc(Cl)c(Cl)c1Cl [Et, Cl, Cl, Cl, O3SCF3]",None

# Same assay, conditions: Conc. 0.5% in vinyl acetate paint, three weeks, 27°-28°; none, medium or heavy
row,SMILES,Surface (growth on the surface of painted square)
1,"CC[n+]1sc(Cl)c(Cl)c1Cl [Et, Cl, Cl, Cl, O3SCF3]",None
